Experimental data: US4250162A, “Protein binding method” (priority 1979, dated 1981)
Several values for one entry are separate records, joined by “and”; a condition that tells them apart may be missing. Equal entries are not always repeated.

Tests used:
[1] = tested on: thyroxine rabbit antiserum; assay: Effect of organic solvents on antiserum-coated polypropylene tubes: residual binding of radioiodinated tracer, thyroxine antiserum; conditions: tracer bound after solvent 3 hours at 50° C., tracer 45 minutes at 37° C.
Experimental: (§1) 1 ml of petroleum ether, benzene, ether, ethyl acetate or acetone was added to a selection of cortisol, thyroxine, diphenylhydantoin and estriol rabbit antiserum-coated polypropylene tubes. The solvent level in the tubes was sufficient to immerse the antiserum coated region at the bottom of the tubes. The solvents were equilibrated with atmospheric water vapor. The solvent-containing tubes were then incubated for 3 hours at 50° C. The excess solvent was poured off and the tubes were left overnight to allow the residual solvent to evaporate. Three sets of control tubes were prepared. One set was treated with water in the same manner as the organic solvents, while another set was heated in air for the same period as the liquid-treated tubes. A final set of tubes served as an untreated control. The residual capacity of the antiserum-coated tubes to bind the respective radioiodinated tracers was determined by adding a 1 ml solution of the tracer containing 0.01 μCi to each tube containing an antiserum coating specific for that tracer, incubating for 45 minutes at 37° C., carefully decanting the tracer solution and counting the radioactivity bound to the tubes. The percent binding was calculated by dividing the bound counts by the total counts added.

[2] = tested on: cortisol rabbit antiserum; assay: Effect of organic solvents on antiserum-coated polypropylene tubes: residual binding of radioiodinated tracer, cortisol antiserum; conditions: tracer bound after solvent 3 hours at 50° C., tracer 45 minutes at 37° C.
Experimental: as §1

[3] = tested on: diphenylhydantoin rabbit antiserum; assay: Effect of organic solvents on antiserum-coated polypropylene tubes: residual binding of radioiodinated tracer, diphenylhydantoin antiserum; conditions: tracer bound after solvent 3 hours at 50° C., tracer 45 minutes at 37° C.
Experimental: as §1

[4] = tested on: rabbit anti-cortisol serum; assay: Competitive radioimmunoassay of cortisol in antiserum-coated plastic tubes (125I-cortisol tracer); type: binding
Experimental: Urine samples are prepared for extraction by adding 200 microliters of a well mixed 24-hour urine sample to each of two disposable glass test tubes, one marked "S" and the other "E". The "E" tube is to be used to determine the efficiency of cortisol extraction from the sample. 10 microliters of cortisol standard serum (60 μg%) are mixed with the contents of the "E" tube, and 1.0 ml of chilled methylene chloride is then added to all tubes. The tubes are capped and their contents agitated to aid in the extraction of cortisol into the methylene chloride layer. After separation of the organic phase, duplicate 100 microliter aliquots of the bottom (methylene chloride) layer of each "S" and "E" tube are carefully removed and added to corresponding plastic test tubes coated with rabbit anti-cortisol serum on their lower inner surfaces, also correspondingly labeled "S" and "E". The methylene chloride is then evaporated from the four plastic test tubes by passing a stream of dry air or nitrogen into the tubes or by a mild warming of the extract to about 37° C. The tubes containing dry cortisol residue as prepared above are then assayed as follows.
A set of plastic test tubes coated with rabbit anti-cortisol serum is numbered 1-12. The "S" and "E" tubes from the preparatory steps above are numbered 13-14 and 15-16, respectively. 0.01 ml of the reagents shown in Table 1 below are added to the designated tubes. The cortisol serum blank which is added to each "S" and "E" tube ensures that the protein content of all tubes is equal.
1.0 ml of ^125 I-Cortisol 3-(0-carboxymethyl)oxime-L-tyrosine in pH 7.0-7.2 phosphate buffered saline having an activity of about 0.033 μCi/ml is added to each tube with gentle mixing. All tubes are incubated in a constant temperature water bath for 45 minutes at 37° C. The contents are removed from the tubes by aspirating or decanting and the tubes counted in a gamma counter with the window suitably adjusted for iodine-125.

[5] = tested on: estriol rabbit antiserum; assay: Effect of organic solvents on antiserum-coated polypropylene tubes: residual binding of radioiodinated tracer, estriol antiserum; conditions: tracer bound after solvent 3 hours at 50° C., tracer 45 minutes at 37° C.
Experimental: as §1

[6] = tested on: antitestosterone; assay: Standard curve for testosterone in antitestosterone-coated polypropylene tubes; type: binding; conditions: serum standards 0.1, 0.3, 1, 3 and 10 ng testosterone/ml, ethyl acetate extraction; 45 minutes at 37° C.; semi-logarithmic plot
Experimental: 0.6 ml of serum standards containing 0.1, 0.3, 1, 3 and 10 ng testosterone/ml were mixed with 3 ml of ethyl acetate. The phases were allowed to separate and 0.5 of the ethyl acetate layer was added to each of duplicate antitestosterone-coated tubes. After the ethyl acetate was evaporated under a stream of nitrogen, 1 ml of phosphate buffered saline at pH 7.4 was added to each tube and the testosterone residue dissolved. Five minutes later 0.1 ml of ^125 I-labeled testosterone tracer was added to each tube. After incubation for 45 minutes at 37° C., the solution was aspirated from each tube and the bound radioactivity determined in conventional fashion. […] The plot was satisfactory for use in the assay of testosterone unknowns.

CC(C)=O [Acetone, acetone]
% Binding [1]: 36%
% Binding [2]: 55%
% Binding [3]: 43%

c1ccccc1 [Benzene, benzene]
% Binding [1]: 52%
% Binding [2]: 56%
% Binding [3]: 34%

C[C@]12CCC(=O)C=C1CC[C@@H]1[C@@H]2[C@@H](O)C[C@@]2(C)[C@H]1CC[C@]2(O)C(=O)CO [Cortisol, cortisol]
CPM Bound ([4]; Cortisol Serum Standard, 1.0 μg%, 100 pg/0.01 ml, 45 minutes at 37° C.): 26,030 CPM and 25,305 CPM
CPM Bound ([4]; Cortisol Serum Standard, 3.0 μg%, 300 pg/0.01 ml, 45 minutes at 37° C.): 22,083 CPM and 21,629 CPM
CPM Bound ([4]; Cortisol Serum Standard, 10 μg%, 1000 pg/0.01 ml, 45 minutes at 37° C.): 14,520 CPM and 14,698 CPM
CPM Bound ([4]; Cortisol Serum Standard, 25 μg%, 2000 pg/0.01 ml, 45 minutes at 37° C.): 8,980 CPM and 9,071 CPM
CPM Bound ([4]; Cortisol Serum Standard, 60 μg%, 6000 pg/0.01 ml, 45 minutes at 37° C.): 4,824 CPM and 5,025 CPM
CPM Bound ([4]; urine extract "E" tubes 15-16 (cortisol-spiked), with Cortisol Serum Blank, 0 μg%): 8,009 CPM and 7,526 CPM
CPM Bound ([4]; urine extract "S" tubes 13-14, with Cortisol Serum Blank, 0 μg%): 14,325 CPM and 15,110 CPM

CCOCC [Ether, ether]
% Binding [1]: 41%
% Binding [2]: 55%
% Binding [5]: 38%
% Binding [3]: 33%

CCOC(C)=O [Ethyl Acetate, ethyl acetate]
% Binding [1]: 41%
% Binding [2]: 54%
% Binding [5]: 62%
% Binding [3]: 38%

C[C@]12CC[C@H]3[C@@H](CCC4=CC(=O)CC[C@@]43C)[C@@H]1CC[C@@H]2O [testosterone]
standard curve (bound radioactivity), in words [6]: virtually straight-line standard curve
